Measured values: US20240270762A1, “PENICILLIN-BINDING PROTEIN INHIBITORS” (priority 2021, published 2024)
Values after ≈ are worked out from the molar mass of the structure shown. Where two headings read alike, the source gives them in different places.

Legend:
[1] = tested on: N. gonorrhoeae MS11; test: Liquid broth MIC in Fastidious broth; details: Neisseria gonorrhoeae
[2] = tested on: P. aeruginosa ATCC 27853; test: microbe, parasite or virus in culture; format: cell-based; details: Pseudomonas aeruginosa, ATCC27853, read-out: Minimum inhibitory concentration, P. aeruginosa ATCC 27853
[3] = tested on: A. baumannii CDC-0036; test: microbe, parasite or virus in culture; format: cell-based; details: Acinetobacter baumannii, CDC0036, read-out: MIC, A. baumannii CDC-0036
[4] = target: T1, PBP3 from Escherichia coli (K-12) (Escherichia coli, UniProt P0AD68); test: Bocillin-FL fluorescence polarization competition binding, E. coli PBP3
T1 construct: made in house
T1 sequence (P0AD68 1-577): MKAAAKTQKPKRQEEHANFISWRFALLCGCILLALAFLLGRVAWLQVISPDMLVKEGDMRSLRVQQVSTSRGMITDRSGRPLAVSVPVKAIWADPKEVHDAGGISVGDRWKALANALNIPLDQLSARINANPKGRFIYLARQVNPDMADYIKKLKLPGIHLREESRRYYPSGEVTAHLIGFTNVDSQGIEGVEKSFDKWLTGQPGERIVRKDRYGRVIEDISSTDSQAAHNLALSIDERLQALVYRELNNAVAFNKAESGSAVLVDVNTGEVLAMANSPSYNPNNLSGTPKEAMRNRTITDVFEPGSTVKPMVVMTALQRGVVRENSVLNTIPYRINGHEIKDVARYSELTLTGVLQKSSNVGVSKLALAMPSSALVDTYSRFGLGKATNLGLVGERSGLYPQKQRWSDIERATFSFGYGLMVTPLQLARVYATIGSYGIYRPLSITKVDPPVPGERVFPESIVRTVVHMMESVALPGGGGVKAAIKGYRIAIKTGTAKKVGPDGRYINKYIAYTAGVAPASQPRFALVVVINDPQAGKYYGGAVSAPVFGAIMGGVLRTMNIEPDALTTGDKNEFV
Procedure, shortened: (§1)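 Purified PBPs pre-incubated with inhibitor (E. coli PBP3 1.5 μM, 30 min; P. aeruginosa PBP3 0.75 μM, A. baumannii PBP1a 1 μM and PBP3 0.2 μM, 15 min), then Bocillin-FL 0.1 μM (0.05 μM for PBP1a) added; FP read up to 60 min. EC50 = concentration halving bound Bocillin-FL.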

[5] = tested on: N. gonorrhoeae CDC-0197; test: Liquid broth MIC in Fastidious broth; details: Neisseria gonorrhoeae
[6] = tested on: N. gonorrhoeae WHO G; test: Liquid broth MIC in Fastidious broth; details: Neisseria gonorrhoeae
[7] = target: T2, PBP3 from Pseudomonas aeruginosa (PAO1) (Pseudomonas aeruginosa, UniProt G3XD46); test: Bocillin-FL fluorescence polarization competition binding, P. aeruginosa PBP3; details: Binding affinity to P. aeruginosa PBP3; fluorescence polarization competition binding assay using Bocillin-FL; read-out: P. aeruginosa PBP3 Potency
T2 construct: made in house
T2 sequence (G3XD46 whole entry): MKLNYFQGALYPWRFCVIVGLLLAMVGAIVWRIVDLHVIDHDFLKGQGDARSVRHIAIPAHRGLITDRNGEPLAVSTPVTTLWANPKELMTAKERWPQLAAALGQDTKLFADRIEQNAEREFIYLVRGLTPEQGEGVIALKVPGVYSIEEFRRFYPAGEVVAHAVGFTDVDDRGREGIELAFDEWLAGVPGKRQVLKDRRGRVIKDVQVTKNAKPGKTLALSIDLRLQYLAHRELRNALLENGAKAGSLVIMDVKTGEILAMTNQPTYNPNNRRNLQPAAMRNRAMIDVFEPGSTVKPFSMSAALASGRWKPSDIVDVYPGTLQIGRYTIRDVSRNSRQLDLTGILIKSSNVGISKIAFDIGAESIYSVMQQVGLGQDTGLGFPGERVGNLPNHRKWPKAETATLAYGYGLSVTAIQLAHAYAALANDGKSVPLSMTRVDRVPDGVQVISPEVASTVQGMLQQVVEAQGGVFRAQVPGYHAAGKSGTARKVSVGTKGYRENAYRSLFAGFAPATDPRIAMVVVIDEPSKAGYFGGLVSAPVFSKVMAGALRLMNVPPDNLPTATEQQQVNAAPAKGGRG
Procedure, shortened: as §1

[8] = tested on: N. gonorrhoeae WHO M; test: Liquid broth MIC in Fastidious broth; details: Neisseria gonorrhoeae
[9] = target: T3, PBP3 from Acinetobacter baumannii (ATCC 19606) (Acinetobacter baumannii, UniProt A0ABX6CK25); test: Bocillin-FL fluorescence polarization competition binding, A. baumannii PBP3; details: fluorescence polarization competition binding assay using Bocillin-FL; read-out: A. baumannii PBP3 Potency
T3 sequence (A0ABX6CK25 64-610): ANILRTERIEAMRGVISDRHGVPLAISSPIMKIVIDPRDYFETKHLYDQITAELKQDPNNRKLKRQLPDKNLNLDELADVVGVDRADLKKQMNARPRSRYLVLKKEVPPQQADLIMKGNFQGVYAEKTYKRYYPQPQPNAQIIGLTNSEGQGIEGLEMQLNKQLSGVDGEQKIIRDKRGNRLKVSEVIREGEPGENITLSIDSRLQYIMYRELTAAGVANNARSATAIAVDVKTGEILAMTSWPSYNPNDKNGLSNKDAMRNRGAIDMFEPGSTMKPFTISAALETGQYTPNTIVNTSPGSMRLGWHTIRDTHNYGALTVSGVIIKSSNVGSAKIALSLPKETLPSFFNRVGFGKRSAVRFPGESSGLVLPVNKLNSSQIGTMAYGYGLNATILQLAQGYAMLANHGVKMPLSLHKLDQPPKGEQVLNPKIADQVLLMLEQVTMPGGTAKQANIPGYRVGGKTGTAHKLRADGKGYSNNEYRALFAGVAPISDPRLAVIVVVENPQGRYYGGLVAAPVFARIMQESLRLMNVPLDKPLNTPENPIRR
Procedure, shortened: as §1

[10] = MS11, read-out: Minimum Inhibitory Concentration, MS11
[11] = CDC0197, read-out: Minimum Inhibitory Concentration, CDC-0197
[12] = read-out: Minimum Inhibitory Concentration, WHO G
[13] = read-out: Minimum Inhibitory Concentration, WHO M

Row | SMILES | MIC ([1]; MS11, read-out: Minimum Inhibitory Concentration (MIC), N. gonorrhoeae MS11) [µg/mL] | MIC [2] [µg/mL] | MIC [3] [µg/mL] | EC50 [4] [µM] | MIC ([5]; CDC0197, read-out: Minimum Inhibitory Concentration (MIC), N. gonorrhoeae CDC-0197) [µg/mL] | MIC ([6]; read-out: Minimum Inhibitory Concentration (MIC), N. gonorrhoeae WHO G) [µg/mL] | IC50 [7] [µM] | MIC ([8]; read-out: Minimum Inhibitory Concentration (MIC), N. gonorrhoeae WHO M) [µg/mL] | IC50 [9] [µM] | MIC [1, 10] [µg/mL] | MIC [5, 11] [µg/mL] | MIC [6, 12] [µg/mL] | MIC [8, 13] [µg/mL]
1 | CS(=O)(=O)N1CCN(C(=O)N[C@@H](C(=O)N[C@H]2Cc3cccc(C(=O)O)c3OB2O)c2ccc(P(=O)(O)O)cc2)C1=O (single isomer, unassigned) [Example 6] | < 1 | 32 to 64 (≈ 52.4 to 105 µM) | 32 to 64 (≈ 52.4 to 105 µM) | < 10 | < 1 | < 1 | < 10 | < 1 | < 10 |  |  |  | 
2 | Cc1cc(C(=O)NCCCN2CCN(C(=O)NC(C(=O)N[C@H]3Cc4ccc(F)c(C(=O)O)c4OB3O)c3cc(F)c(O)c(O)c3Cl)C(=O)C2=O)c(F)cn1 (stereo partly drawn) [Example 301, (3R)-3-(2-(2-chloro-5-fluoro-3,4-dihydroxyphenyl)-2-(4-(3-(5-fluoro-2-methylisonicotinamido)propyl)-2,3-dioxopiperazine-1-carboxamido)acetamido)-7-fluoro-2-hydroxy-3,4-dihydro-2H-benzo[e][1,2]oxaborinine-8-carboxylic acid] |  | < 1 | 2 to 4 (≈ 2.57 to 5.15 µM) | < 10 |  |  | < 10 |  | < 10 | 16 to 32 (≈ 20.6 to 41.2 µM) | > 64 | 16 to 32 (≈ 20.6 to 41.2 µM) | 16 to 32 (≈ 20.6 to 41.2 µM)
3 | O=C(NCCCN1CCN(C(=O)NC(C(=O)N[C@H]2Cc3ccc(F)c(C(=O)O)c3OB2O)c2cc(F)c(O)c(O)c2Cl)C(=O)C1=O)c1ccc(O)c(Cl)c1 (stereo partly drawn) [Example 305, (3R)-3-(2-(4-(3-(3-chloro-4-hydroxybenzamido)propyl)-2,3-dioxopiperazine-1-carboxamido)-2-(2-chloro-5-fluoro-3,4-dihydroxyphenyl)acetamido)-7-fluoro-2-hydroxy-3,4-dihydro-2H-benzo[e][1,2]oxaborinine-8-carboxylic acid] |  | 2 to 4 (≈ 2.52 to 5.04 µM) | 2 to 4 (≈ 2.52 to 5.04 µM) | < 10 |  |  | < 10 |  | < 10 | 16 to 32 (≈ 20.1 to 40.3 µM) | > 64 | 16 to 32 (≈ 20.1 to 40.3 µM) | 16 to 32 (≈ 20.1 to 40.3 µM)
4 | O=C(NCCS(=O)(=O)N1CCN(C(=O)NC(C(=O)N[C@H]2Cc3ccc(F)c(C(=O)O)c3OB2O)c2cc(F)c(O)c(O)c2Cl)C1=O)Nc1ccc(O)cc1 (stereo partly drawn) [Example 289, (3R)-3-(2-(2-chloro-5-fluoro-3,4-dihydroxyphenyl)-2-(3-((2-(3-(4-hydroxyphenyl)ureido)ethyl)sulfonyl)-2-oxoimidazolidine-1-carboxamido)acetamido)-7-fluoro-2-hydroxy-3,4-dihydro-2H-benzo[e][1,2]oxaborinine-8-carboxylic acid] |  | 2 to 4 (≈ 2.51 to 5.02 µM) | 2 to 4 (≈ 2.51 to 5.02 µM) | < 10 |  |  | < 10 |  | < 10 | 4 to 8 (≈ 5.02 to 10 µM) | 16 to 32 (≈ 20.1 to 40.2 µM) | 4 to 8 (≈ 5.02 to 10 µM) | 4 to 8 (≈ 5.02 to 10 µM)
5 | O=C(NCCCN1CCN(C(=O)NC(C(=O)N[C@H]2Cc3ccc(F)c(C(=O)O)c3OB2O)c2cc(F)c(O)c(O)c2Cl)C1=O)c1cccnc1 (stereo partly drawn) [Example 281, (3R)-3-(2-(2-chloro-5-fluoro-3,4-dihydroxyphenyl)-2-(3-(3-(nicotinamido)propyl)-2-oxoimidazolidine-1-carboxamido)acetamido)-7-fluoro-2-hydroxy-3,4-dihydro-2H-benzo[e][1,2]oxaborinine-8-carboxylic acid] |  | 2 to 4 (≈ 2.79 to 5.58 µM) | 2 to 4 (≈ 2.79 to 5.58 µM) | 10 to 50 |  |  | < 10 |  | < 10 | > 64 | > 64 | 16 to 32 (≈ 22.3 to 44.6 µM) | 16 to 32 (≈ 22.3 to 44.6 µM)
